Where a SMILES comes first, the peptide text is derived from it. The star is where a group is joined. Cbz = O=C(OCc1ccccc1)*
How the values were obtained:
[1] = system: ubiquitinated serotonin transporter protein; test: Expression amount of ubiquitinated serotonin transporter protein in established lymphocytes (UBIQAPTURE-Q kit, Western blotting); type: cell-based, human; conditions: MG132 20 μM, 4 hours
Description: The mouse brain sample, cells, and established lymphocytes were subjected to ultrasonic fragmentation at 4° C. using a sonicator in a lysis buffer [20 mM Tris-HCl, 150 mM NaCl, 50 mM NaF, 1 mM EDTA, 1 mM EGTA, 1% (w/v) TRITONX-100, 1 mM sodium orthovanadate, 0.1% (w/v) SDS, 1% (w/v) sodium deoxycholate, 0.5 mM dithiothreitol, 10 mM sodium pyrophosphate decahydrate, 1 mM phenylmethylsulfonyl fluoride, 10 μg/mL aprotinin, 10 μg/mL leupeptin, and 10 μg/mL pepstatin (pH 7.4)], and thus a homogenate was obtained through these operations. The homogenate was centrifuged for 20 minutes at 4° C. and 13000×g, and the supernatant thus obtained was used. A sample buffer [0.125 M Tris-HCl (pH 6.8), 2% (w/v) SDS, 5% (w/v) glycerol, 0.002% (w/v) bromophenol blue, and 5% (w/v) 2-mercaptoethanol] was added to each of the supernatant samples whose protein content had been adjusted, and then boiled at 95° C. for 5 minutes. Thereafter, the protein (20 μg) was subjected to electrophoresis using a 10% polyacrylamide gel, the protein was transferred to a polyvinylidene difluoride (PVDF) membrane (Millipore Corporation, Billerica, Mass., USA), and blocked using Detector Block Kit (Kirkegaard and Perry Laboratories, Gaithersburg, Md., USA). […] The luminescence due to the immune complex was detected using ECL (GE Healthcare Biosciences, Piscataway, N.J., USA), which is a Western blotting detection reagent, and the expression amount was calculated by the image analysis of the luminescence intensity. […]
According to the procedure in the above-described A (5), the ubiquitinated protein was isolated from the homogenate homogenized with a lysis buffer using UBIQAPTURE-Q kit (Enzo Life Sciences International, Inc, Plymouth Meeting, Pa.), and the ubiquitinated serotonin transporter protein was detected by Western blotting under the same conditions as in the A (5). […]

[2] = system: serotonin transporter protein; test: Expression amount of serotonin transporter protein in established lymphocytes (Western blotting); type: cell-based, human; conditions: for expression amount of the serotonin transporter: MG132 20 μM, 4 hours, control = healthy subjects without MG132
Description: The mouse brain sample, cells, and established lymphocytes were subjected to ultrasonic fragmentation at 4° C. using a sonicator in a lysis buffer [20 mM Tris-HCl, 150 mM NaCl, 50 mM NaF, 1 mM EDTA, 1 mM EGTA, 1% (w/v) TRITONX-100, 1 mM sodium orthovanadate, 0.1% (w/v) SDS, 1% (w/v) sodium deoxycholate, 0.5 mM dithiothreitol, 10 mM sodium pyrophosphate decahydrate, 1 mM phenylmethylsulfonyl fluoride, 10 μg/mL aprotinin, 10 μg/mL leupeptin, and 10 μg/mL pepstatin (pH 7.4)], and thus a homogenate was obtained through these operations. The homogenate was centrifuged for 20 minutes at 4° C. and 13000×g, and the supernatant thus obtained was used. A sample buffer [0.125 M Tris-HCl (pH 6.8), 2% (w/v) SDS, 5% (w/v) glycerol, 0.002% (w/v) bromophenol blue, and 5% (w/v) 2-mercaptoethanol] was added to each of the supernatant samples whose protein content had been adjusted, and then boiled at 95° C. for 5 minutes. Thereafter, the protein (20 μg) was subjected to electrophoresis using a 10% polyacrylamide gel, the protein was transferred to a polyvinylidene difluoride (PVDF) membrane (Millipore Corporation, Billerica, Mass., USA), and blocked using Detector Block Kit (Kirkegaard and Perry Laboratories, Gaithersburg, Md., USA). A primary antibody (anti-SERT) (Millipore, Billerica, Mass.) against the serotonin transporter protein was added to the PVDF membrane, allowed to stand overnight in a refrigerator (4° C.), and then a secondary antibody (HRP-conjugated anti-rabbit IgG) (Kirkegaard and Perry Laboratories) was added, and allowed to stand at room temperature for 3 hours. The luminescence due to the immune complex was detected using ECL (GE Healthcare Biosciences, Piscataway, N.J., USA), which is a Western blotting detection reagent, and the expression amount was calculated by the image analysis of the luminescence intensity.
Subsequently, in order to determine the expression amount of the β-actin protein as the endogenous reference material, stripping was carried out, a primary antibody (anti-β-actin) (Santa Cruz Biotechnology, Santa Cruz, Calif.) was added, and incubated. In the result thus obtained, the band of the serotonin transporter protein was corrected by the band of the β actin protein, and the expression amount to the control group was expressed in terms of the percentage (%).
Each of the blood samples aseptically collected from the above objects was diluted two folds with a sterile normal saline solution. Subsequently, the diluted blood sample was quietly poured into the tube containing 3.5 ml of the Ficoll-Paque liquid (General Electric Company, Uppsala, Sweden), and centrifuged at 600×g for 30 minutes. […]

wild type C57BL/6J mouse = test: Forced swimming test, control mouse; type: in vivo
Description: (§1) Experimental equipment and procedure: the experimental equipment was a water tank (diameter 15 cm×height 20 cm) containing water (water temperature about 22° C.×depth 13 cm). The wild type C57BL/6J mouse as the control or the model mouse was placed in the water tank, and immediately after that, the immobility time was measured using Scanet MV-10AQ (Brainscience Idea, Co., Ltd. Osaka, Japan) for 10 minutes at intervals of 1 minute.
(§2) 5 or 10 mg/kg sertraline (Pfizer, Groton, CT) suspended in 0.3% carboxymethyl cellulose sodium, and 10 or 20 mg/kg imipramine (Sigma, St. Louis, Mo.) dissolved in a normal saline solution were intraperitoneally administered 30 minutes before the main test. As the control, the solvent was intraperitoneally administered.

[3] = system: MAGE-D1 gene-deficient mouse; test: Forced swimming test, model mouse; type: in vivo; conditions: for effect on the increase of the immobility time: forced swimming test (FIG. 1)
From the text: The targeting vector (Stratagene: pBlueScript), which allow homologous recombination between the MAGE-D1 gene (Gene bank: NM_019791.2) exon and the drug (G418)-resistant gene (GenBank: U00004.1), was electroporated into the embryonic stem (ES) cells (acquired from Research Institute of National Center for Geriatrics and Gerontology) derived from the 129Svj mouse, and the drug-resistant colony was selected. The homologous recombinant was identified from the selected resistant colony by Southern blotting. The desired homologous recombinant ES cell clone thus identified was injected into the blastocyst stage embryo of the C57BL/6J mouse, thereby making a chimera mouse. The chimera mouse was mated with the wild type C57BL/6J mouse, thereby making a hetero MAGE-D1 gene-deficient mouse of F1 generation. The wild type C57BL/6J was mated with the hetero MAGE-D1 gene-deficient mouse up to the F10 generation, and the mouse having 99.9 percent (as a result of one mating with the C57BL/6J mouse, about half the genes of the newborn mouse are derived from the C57BL/6J mouse used for mating; in other words, as a result of the n times of mating with the C57BL/6J mouse, about [1−(1/2)^n+1]×100% genes are likely derived from the C57BL/6J mouse) C57BL/6J genetic background was used. The mouse having the genetic background was used as the MAGE-D1 gene-deficient mouse (hereinafter may be referred to as model mouse) in the following test.
as §1, §2

[4] = established lymphocytes from patients with depression to whom the antidepressant was not effective
[5] = 10 mg/kg intraperitoneally 30 minutes before test
[6] = 20 mg/kg intraperitoneally 30 minutes before test
[7] = 5 mg/kg intraperitoneally 30 minutes before test

Structure (SMILES)	expression amount of the ubiquitinated serotonin transporter ([1]; established lymphocytes from healthy subjects, control = healthy subjects without MG132) [%]	expression amount of the ubiquitinated serotonin transporter ([1]; established lymphocytes from patients with depression to whom fluvoxamine was effective) [%]	expression amount of the ubiquitinated serotonin transporter [1, 4] [%]	expression amount of the serotonin transporter ([2]; established lymphocytes from healthy subjects) [%]	expression amount of the serotonin transporter ([2]; established lymphocytes from patients with depression to whom the antidepressant was effective) [%]	expression amount of the serotonin transporter [2, 4] [%]	effect of addition on the expression amount of the serotonin transporter ([2]; established lymphocytes of the patients with depression, regardless of effect of the antidepressant)	average of the immobility time ratio (wild type C57BL/6J mouse; [5]) [%]	average of the immobility time ratio (wild type C57BL/6J mouse; [6]) [%]	average of the immobility time ratio [3, 5] [%]	average of the immobility time ratio [3, 6] [%]	effect on the increase of the immobility time [3]	average of the immobility time ratio (wild type C57BL/6J mouse; [7]) [%]	average of the immobility time ratio [3, 7] [%]
CC(C)C[C@@H](C=O)NC(=O)[C@H](CC(C)C)NC(=O)[C@H](CC(C)C)NC(=O)OCc1ccccc1 [MG132] (Cbz-Leu-Leu-Leu-aldehyde)	130.6	103.4	88.5	173.8	141.9	143.6	did not significantly increase	–	–	–	–	–	–	–
CN(C)CCCN1c2ccccc2CCc2ccccc21 [imipramine]	–	–	–	–	–	–	–	47.7	39.0	60.2	40.6	significantly and dose-dependently decreased	–	–
CN[C@H]1CC[C@@H](c2ccc(Cl)c(Cl)c2)c2ccccc21 [sertraline]	–	–	–	–	–	–	–	37.7	–	45.7	–	significantly and dose-dependently decreased	37.4	56.3

— patent US9581606B2, “Method for determining depression, kit for analyzing serotonin transporter, and kit for analyzing ubiquitinated serotonin transporter in blood” (MEIJO UNIVERSITY, priority 2011, dated 2017)
